# Where two headings read alike, the source gives them in different places. Marks after values point to notes of the source that are not given here.
# Tests used:
# FKBP5 gene expression = assay: GC regulated gene expression in tissues of the contact hypersensitivity model; type: in vivo, mouse; details: 3 mg/kg
# Description: (§1) Briefly, huNOG-EXL mice were engrafted at 6 weeks of age with human CD34+ hematopoietic stem cells isolated from human cord blood. 20-24 weeks after stem cell administration the mice were assessed for human CD45 engraftment (>25% in blood) and subjected to an oxazolone-induced contact hypersensitivity protocol. […] 24 hours (Day 1) post administration, the mice were anesthetized with 5% isoflurane, their abdomens shaved, and sensitized with 100 μL of 3% oxazolone in ethanol (applied to the shaved area). Mice were dosed again on Day 4, 11, and 16 as above, and challenged with 2% oxazolone in ethanol on both ears (10 μL/side/ear) 48 hours post each dose (Day 6—Challenge 1, Day 13—Challenge 2, and Day 18—Challenge 3). For the GC1 alone group, mice were dosed with 3 mg/kg SC 1 hour prior to sensitization and prior to each challenge. Upon final challenge, mice were euthanized, and ear tissue and the gastrocnemius was collected for analysis of target selective and non-target selective tissue expression of GC regulated genes.
# [1] = system: human plasmacytoid dendritic cells (pDCs); assay: Plasmacytoid dendritic cell differentiation assay; type: cell-based; details: human PBMCs, IL-3 supplemented media, CpG stimulation
# Description: The differentiation of pDC was measured by flow cytometry. The functional effects of the pDC were measured by type I IFN (IFNα) production.
# [2] = system: oxazolone-induced skin inflammation; assay: Oxazolone-induced contact hypersensitivity in humanized mouse model (HuNOG-EXL); type: in vivo; details: Challenge 3, 3 mg/kg SC 1 hour prior to sensitization and each challenge
# Description: as §1
# human PBMCs = assay: Proinflammatory cytokine modulation in LPS-stimulated PBMCs; type: cell-based; details: PBMC, 200 nM, LPS 100 pg/mL, 24 hours
# Description: PBMCs were used to mimic in vivo conditions. […] The cells were then stimulated with LPS (Sigma cat. L2880) at 100 pg/mL in a 37° C. incubator for 24 hours. Culture supernatants were collected to measure the indicated cytokines (Proinflammatory Panel II (human) 4-Plex kits, MSD, K15053D-2).
smiles,measurement,setting,value
"Cc1ccc(OCc2cccc(N)c2)c(F)c1[C@H]1O[C@@H]2C[C@H]3[C@@H]4CCC5=CC(=O)C=C[C@]5(C)[C@H]4[C@@H](O)C[C@]3(C)[C@]2(C(=O)CO)O1 (single isomer, unassigned) [GC1]","Fold increase in FKBP5 gene expression compared to Isotype, Gastrocnemius, Mean",FKBP5 gene expression; non-targeted tissue (Gastrocnemius),3.958
same,"Fold increase in FKBP5 gene expression compared to Isotype, Ear, Mean",FKBP5 gene expression; targeted tissue (Ear),4.505
same,% Inhibition of human IFNα secretion,[1],97.18 ± 2.95%
same,% Inhibition of pDC cell differentiation,[1]; flow cytometry,95.50 ± 8.32%
same,"Δ Ear thickness, Mean",[2],0.018*^ mm
same,inhibition at 0.2 µM,human PBMCs; read-out: % Inhibition of human IL-6 secretion at 200 nM,83.9 ± 2.81%
same,inhibition at 0.2 µM,human PBMCs; read-out: % Inhibition of human TNFa secretion at 200 nM,85.1 ± 3.28%
